Source: patent US10851096B2, “Aryl and heteroaryl amides for use as anti-proliferative, anti-thrombotic, and anti-viral agents” (Rutgers, The State University of New Jersey, priority 2016, dated 2020)

Key:
Axl/Gas6 interaction = target: T1, Axl/Gas6 interaction (Homo sapiens, UniProt P30530); assay: Pull-down competitive inhibition assay of Gas6 binding to His-tagged soluble Axl; conditions: His-tagged soluble Axl Ig1/Ig2 with recombinant Gas6
T1 construct: His-tagged soluble Axl Ig1/Ig2 recombinant proteins; Amgen (Gas6 only)
Protocol: 400 nM His tagged-sAxl were co-incubated with increasing amounts of compound 1A (0, 5, 10 or 20 μM) in a 50 μl reaction mixture of Tris-Nacl Buffer (20 mM Tris.HCl, 150 mM NaCl, pH 8.0), and incubated at 37° C. for 60 minutes, with intermittent mixing. Thereafter, equal amount of hGas6 (100 nM) was added to each tube and incubated at 37° C. for another 60 minutes, with intermittent mixing. To each of the tubes, 1 μg of 6×-His antibody was added and the mixture was incubated overnight at 4° C. on a rotary mixer. After overnight incubation, 30 μl of Protein A/G PLUS agarose beads (Santa Cruz) were added into each of the tubes and incubated for an hour at 4° C. The mixtures were centrifuged and the pellets were then washed four times in ice-cold Nonidet P-40 buffer (20 mM Tris.HCl, 150 mM NaCl, pH 8.0 and 1% Nonidet P-40). Pellets were re-suspended in 30 μl of 2× sample loading dye and boiled for 5 min at 95° C. The samples were fractionated by SDS-PAGE and bound Gas6 was analyzed by immunoblotting.

native Axl [1] = target: T2, native Axl (Homo sapiens, UniProt P30530); assay: Gas6-inducible phosphorylation of native Axl in MDA-MB-231 cells (immunoblot); type: cell-based; conditions: MBA-MD-231 breast cancer cell line, FIG. 5A
T2 construct: Gas6-inducible phosphorylation of native Axl (pAxl); endogenous in cells; host or cells: MDA-MB-231
T2 sequence (P30530 26-894): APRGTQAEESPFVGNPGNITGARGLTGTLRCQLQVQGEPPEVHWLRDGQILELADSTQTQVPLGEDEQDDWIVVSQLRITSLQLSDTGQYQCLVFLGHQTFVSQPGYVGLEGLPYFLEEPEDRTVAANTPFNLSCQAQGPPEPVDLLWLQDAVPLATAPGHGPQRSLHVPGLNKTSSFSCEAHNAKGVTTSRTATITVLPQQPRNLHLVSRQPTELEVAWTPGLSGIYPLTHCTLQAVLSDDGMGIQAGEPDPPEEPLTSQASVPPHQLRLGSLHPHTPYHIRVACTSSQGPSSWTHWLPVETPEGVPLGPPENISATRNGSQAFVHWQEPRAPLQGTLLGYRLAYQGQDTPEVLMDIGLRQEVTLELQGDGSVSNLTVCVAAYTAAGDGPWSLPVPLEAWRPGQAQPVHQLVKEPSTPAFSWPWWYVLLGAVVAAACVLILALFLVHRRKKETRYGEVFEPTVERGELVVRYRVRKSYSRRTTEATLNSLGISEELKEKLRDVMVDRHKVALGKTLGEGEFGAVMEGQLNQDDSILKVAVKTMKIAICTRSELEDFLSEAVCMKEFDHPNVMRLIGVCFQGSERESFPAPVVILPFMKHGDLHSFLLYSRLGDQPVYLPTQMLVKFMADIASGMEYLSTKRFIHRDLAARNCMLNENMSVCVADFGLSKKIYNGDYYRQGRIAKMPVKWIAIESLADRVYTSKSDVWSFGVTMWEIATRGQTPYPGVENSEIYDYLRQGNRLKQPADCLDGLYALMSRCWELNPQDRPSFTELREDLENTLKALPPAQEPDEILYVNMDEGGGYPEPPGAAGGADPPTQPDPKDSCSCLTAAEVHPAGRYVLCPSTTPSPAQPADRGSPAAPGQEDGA
Protocol: (§1) Stable hAxl/IFN-γR1 CHO reporter cell lines (containing human Axl extracellular domains and transmembrane and intracellular domains of human IFN-γR1) were serum starved for 5 hrs±small molecule inhibitors and then stimulated with human Gas6 conditioned media±small molecule inhibitors for 30 minutes. For H1299 human non-small cell lung carcinoma and MDA-MB-231 human breast adenocarcinoma cell lines, the cells were serum starved overnight±small molecule inhibitors and stimulated with human Gas6 conditioned media±small molecule inhibitors for 30 minutes. Whole cell lysates of hAxl/IFN-γR1, H1299 and MDA-MB-231 cells were prepared using HNTG buffer (20 mM HEPES, pH 7.5, 150 mM NaCl, 10% glycerol, 1% Triton X-100, 1 mM PMSF, 1 mM Na3VO4, 10 mM Na2MoO4, 1 mM EDTA, 10 mM NaF and 20 μg/mL aprotinin). The resulting lysates were resolved on SDS-PAGE gel and immunoblotted with respective antibodies.
(§2) Immunoblot data were obtained within a linear range of exposure, and intensities were quantified by ImageJ. The levels of hAxl/IFN-γR1 cells lines activation were measured by pSTAT1 whereas the levels of H1299 and MDA-MB-231 cell lines activation were measured by pAxl signal intensities. Blots were normalized to intensities of respective β-actin or GAPDH protein loading controls. […]

native Axl [2] = target: T2, native Axl; assay: Gas6-inducible phosphorylation of native Axl in H1299 cells (immunoblot); type: cell-based; conditions: H1299 lung cancer cell line, FIG. 5B
Protocol: as §1, §2

Akt phosphorylation = assay: Gas6-inducible Akt phosphorylation in Axl-positive cancer cell lines; type: cell-based, human; conditions: pre-treatment with 10 μM
Protocol: as §1

H1299 cells [3] = assay: Gas6-inducible motility through transwell pore, H1299; type: cell-based, human; conditions: pretreatment of H1299 cells
H1299 cells [4] = assay: Colony forming assay, H1299; type: cell-based, human; conditions: H1299 cultured in the presence of Gas6
Protocol: H1299 cells were plated in 6 well plates at a very low density (˜250 cells/well). Next day, the cells were treated with the SMIs at different concentrations. The cells were incubated with the drugs for 14 days. After 14 days, colonies were stained with 0.25% crystal violet in 95% ethanol. Colonies consisting of more than 50 cells were counted.

[5] = Toxicity and body weight in xenograft mice; type: in vivo; conditions: for body weights: 100 mg/kg, versus vehicle; for toxicity in cell culture or in vivo: up to highest dose tested 300 mg/kg IP
Protocol: 500,000 H1299 cells in 100 μl of PBS were injected subcutaneously into the right flank of 4-6 week NOD/SCIDg mice. Once tumors were palpable, the mice were randomized into 3 groups, each group had 6 mice: control mice were treated with vehicle (DMSO) intraperitoneally (IP) and the treatment groups with compound 1I (day 1, day 2, day 3 and day 4) or with compound 1Q (day 1, day 2, day 3, day 4, day 7 and day 8) at a dose of 100 mg/kg IP. Similar studies were conducted on compound 1Q dosed at 300 mg/kg in mice. Tumor size and body weights were measured three times a week and the tumor volume calculated.

[6] = Pharmacokinetics in mice (half-life, bioavailability); type: in vivo, mouse; conditions: for half-life: mouse, in vivo, read-out: half-life (t1/2) (converted)

Row | Structure (SMILES) | inhibition of Axl/Gas6 interaction in vitro (Axl/Gas6 interaction) | inhibition of activation (phosphorylation) of Axl (native Axl [1]) | inhibition of activation (phosphorylation) of Axl (native Axl [2]) | Gas6-inducible Akt phosphorylation (Akt phosphorylation) | Gas6-inducible motility through an 8 μm pore (H1299 cells [3]) | clonogenic growth (H1299 cells [4]) | body weights [5] | toxicity in cell culture or in vivo [5] | bioavailability [6] | half-life [6] [h]
1 | Cc1noc(C)c1CSc1ccccc1C(=O)N1CCN(c2cccc(C(F)(F)F)c2)CC1 [1I] | able to inhibit in vitro the Axl/Gas6 interaction in a dose-dependent manner | potent inhibition | potent inhibition | abrogated | strongly suppressed | suppressed clonogenic growth | not significantly different | Neither compound 1I nor compound 1Q showed notable toxicity | good bioavailability | ~8
2 | Cc1cc(CSc2ccccc2C(=O)NCCNc2ccc(C(F)(F)F)cc2[N+](=O)[O-])on1 [1Q] | able to inhibit in vitro the Axl/Gas6 interaction in a dose-dependent manner | potent inhibition | potent inhibition | abrogated | strongly suppressed | suppressed clonogenic growth | not significantly different | Neither compound 1I nor compound 1Q showed notable toxicity | good bioavailability | ~8
